Converted amounts (≈) assume the structure as drawn. Read-outs that look alike come from different tables or passages of the source.
How the values were obtained:
[1] = system: Mycobacterium tuberculosis (Mtb); assay: microbe, parasite or virus in culture; assay type: cell-based, Mycobacterium tuberculosis H37Rv (Mtb-GFP); settings: 168 h
[2] = system: Staphylococcus aureus (methicillin resistant, MB5393, COL); assay: microbe, parasite or virus in culture; assay type: cell-based; settings: MRSA, 22 h, read-out: MRSA COL MITC95 μM
Experimental: Inhibition of Staphylococcus aureus (methicillin resistant, MB5393, COL) growth was assessed in cation adjusted Mueller Hinton II broth (CAMHB) in 384-well microtiter plates. Bacteria were dispensed into microtiter plates at approximately 5×10^5 actively growing cells in 49 μL volumes per well. Cells were exposed to 2-fold serial dilutions of compounds from 200 μM to 0.195 μM and growth compared to drug-free control. Compound dilutions were prepared in 100% dimethylsulfoxide and added to microtiter plates in 1 μL volumes per well. Full growth control wells contained dimethylsufoxide and bacteria. No growth control wells contained dimethysulfoxide and CAMHB but no bacteria. Growth inhibition was assessed after a 22-hour growth period by measuring optical density using a spectrophotometer. The lowest concentration of test compound required to inhibit 95% of the growth of the bacteria was defined as the MITC95. All studies were done in a BSL2 facility.

[3] = system: mitochondrial protein synthesis in HepG2 cells (COX-I / SDH-A); assay: Mitochondrial protein synthesis assay; assay type: cell-based; settings: Homo sapiens, read-out: MPS IC50_μM
Experimental: (§1) Inhibition of mitochondrial protein synthesis was assessed in HepG2 cells by comparing the levels of two subunits of oxidative phosphorylation enzyme complexes, subunit I of Complex IV (COX-I) and the 70 kDa subunit of Complex II (SDH-A). COX-I is mitochondrial DNA encoded and SDH-A is nuclear DNA encoded. HepG2 cells were seeded in 96-well collagen coated plates at 8,000 cells per well and exposed to 2-fold serial dilutions of compounds from 100 LM to 6.25 μM. Microtiter plates were incubated for approximately 5 replication cycles (4 days) prior to assessment of protein levels using a kit as described by the manufacturer (ab 110217 MitoBiogenesis In Cell ELISA Kit, Abcam, Cambridge, Mass.). Inhibition of mitochondrial protein synthesis was expressed as a ratio of COX-1 to SDH-A levels.
as §1, with “μM” for “LM”

[4] = pH 6.8, read-out: Mtb Cho MITC95_μM
[5] = pH 6.8, read-out: Mtb Glu MITC95_μM
[6] = 96 h, HepG2 cells, 4 days, ratio of COX-1 to SDH-A levels

Structure (SMILES)	MIC [1, 4] [µM]	MIC [1, 5] [µM]	MIC [2] [µM]	IC50 [3, 6] [µM]	IC50 ([3]; HepG2, 96 h) [µM]
NC[C@H]1CN(c2cnc(N3CCS(=O)(=O)CC3)c(F)c2)C(=O)O1 [Example 48, (S)-5-(aminomethyl)-3-(6-(1,1-dioxidothiomorpholino)-5-fluoropyridin-3-yl)oxazolidin-2-one]	0.78 (≈ 0.269 µg/mL)	0.39 (≈ 0.134 µg/mL)	200 (≈ 68.9 µg/mL)	> 100	
NC[C@H]1CN(c2ccc(-c3ccc4cc[nH]c4c3)c(F)c2)C(=O)O1 [Example 27, (5S)-5-(aminomethyl)-3-[3-fluoro-4-(1H-indol-6-yl)phenyl]-1,3-oxazolidin-2-one]	0.78 (≈ 0.254 µg/mL)	0.39 (≈ 0.127 µg/mL)	200 (≈ 65.1 µg/mL)	> 50	
CS(=N)(=O)c1ccc(-c2ccc(N3C[C@H](Cn4ccnn4)OC3=O)cc2F)cc1 (stereo partly drawn) [Example 64, (5R)-5-((1H-1,2,3-triazol-1-yl)methyl)-3-(2-fluoro-4′-(S-methylsulfonimidoyl)-[1,1′-biphenyl]-4-yl)oxazolidin-2-one]	0.09 (≈ 0.0374 µg/mL)	0.09 (≈ 0.0374 µg/mL)	0.39 (≈ 0.162 µg/mL)	> 20	
NC[C@H]1CN(c2ccc(-c3ccn[nH]3)c(F)c2)C(=O)O1 [Example 16, (5S)-5-(aminomethyl)-3-[3-fluoro-4-(1H-pyrazol-5-yl)phenyl]-1,3-oxazolidin-2-one]	0.39 (≈ 0.108 µg/mL)	0.19 (≈ 0.0525 µg/mL)	200 (≈ 55.3 µg/mL)	> 20	
CCNC(=O)NC[C@H]1CN(c2ccc(-c3ccc(SC)cc3)c(F)c2)C(=O)O1 [Example 58, (S)-1-ethyl-3-((3-(2-fluoro-4′-(methylthio)-[1,1′-biphenyl]-4-yl)-2-oxooxazolidin-5-yl)methyl)urea]	0.19 (≈ 0.0767 µg/mL)	0.58 (≈ 0.234 µg/mL)	200 (≈ 80.7 µg/mL)		> 20
NC[C@H]1CN(c2ccc(-c3cccs3)c(F)c2)C(=O)O1 [Example 56, (S)-5-(aminomethyl)-3-(3-fluoro-4-(thiophen-2-yl)phenyl)oxazolidin-2-one]	0.39 (≈ 0.114 µg/mL)	0.39 (≈ 0.114 µg/mL)	100 (≈ 29.2 µg/mL)	> 20	
CSc1ccc(-c2ccc(N3C[C@H](COc4ccon4)OC3=O)cc2F)cc1 [Example 49, (R)-3-(2-fluoro-4′-(methylthio)-[1,1′-biphenyl]-4-yl)-5-((isoxazol-3-yloxy)methyl)oxazolidin-2-one]	0.58 (≈ 0.232 µg/mL)	0.58 (≈ 0.232 µg/mL)	200 (≈ 80.1 µg/mL)	> 20	
COc1ncc(-c2ccc(N3C[C@H](CN)OC3=O)cc2F)cn1 [Example 28, (5S)-5-(aminomethyl)-3-[3-fluoro-4-(2-methoxypyrimidin-5-yl)phenyl]-1,3-oxazolidin-2-one]	1.14 (≈ 0.363 µg/mL)	0.3 (≈ 0.0955 µg/mL)	200 (≈ 63.7 µg/mL)	> 100	
CS(=O)(=O)Nc1ccc(-c2ccc(N3C[C@H](CN)OC3=O)cc2F)cc1 [Example 17, N-{4′-[(5S)-5-(aminomethyl)-2-oxo-1,3-oxazolidin-3-yl]-2′-fluorobiphenyl-4-yl}methanesulfonamide]	0.29 (≈ 0.11 µg/mL)	0.09 (≈ 0.0341 µg/mL)	200 (≈ 75.9 µg/mL)	> 20	
N#Cc1cccc(-c2ccc(N3C[C@H](CN)OC3=O)cc2F)c1 [Example 13, 4′-[(5S)-5-(aminomethyl)-2-oxo-1,3-oxazolidin-3-yl]-2′-fluorobiphenyl-3-carbonitrile]	0.19 (≈ 0.0592 µg/mL)	0.19 (≈ 0.0592 µg/mL)	200 (≈ 62.3 µg/mL)	> 20	
CC(=O)NC[C@H]1CN(c2ccc(N3CCn4ncnc4C3)cc2)C(=O)O1 [Example 42, (S)—N-((3-(4-(5,6-dihydro-[1,2,4]triazolo[1,5-a]pyrazin-7(8H)-yl)phenyl)-2-oxooxazolidin-5-yl)methyl)acetamide]	1.5 (≈ 0.535 µg/mL)	1.5 (≈ 0.535 µg/mL)	200 (≈ 71.3 µg/mL)		> 20
CSc1ccc(-c2ccc(N3C[C@H](Cn4cncn4)OC3=O)cc2F)cc1 [Example 43, (R)-5-((1H-1,2,4-triazol-1-yl)methyl)-3-(2-fluoro-4′-(methylthio)-[1,1′-biphenyl]-4-yl)oxazolidin-2-one]	0.19 (≈ 0.073 µg/mL)	0.58 (≈ 0.223 µg/mL)	200 (≈ 76.9 µg/mL)	> 20	
NC[C@H]1CN(c2ccc(-c3cccc(C(N)=O)c3)c(F)c2)C(=O)O1 [Example 10, 4′-[(5S)-5-(aminomethyl)-2-oxo-1,3-oxazolidin-3-yl]-2′-fluorobiphenyl-3-carboxamide]	0.09 (≈ 0.0296 µg/mL)	0.09 (≈ 0.0296 µg/mL)	200 (≈ 65.9 µg/mL)	> 20	
CSc1ccc(-c2ccc(N3C[C@H](Cn4cccn4)OC3=O)cc2F)cc1 [Example 46, (5R)-3-[2-fluoro-4′-(methylsulfanyl)biphenyl-4-yl]-5-(1H-pyrazol-1-ylmethyl)-1,3-oxazolidin-2-one]	0.29 (≈ 0.111 µg/mL)	0.585 (≈ 0.224 µg/mL)	200 (≈ 76.7 µg/mL)	> 20	
NC[C@H]1CN(c2ccc(-c3ccc4c(c3)CNC4=O)c(F)c2)C(=O)O1 [Example 34, 5-{4-[(5S)-5-(aminomethyl)-2-oxo-1,3-oxazolidin-3-yl]-2-fluorophenyl}-2,3-dihydro-1H-isoindol-1-one]	0.04 (≈ 0.0137 µg/mL)	0.04 (≈ 0.0137 µg/mL)	200 (≈ 68.3 µg/mL)	> 20	
NC[C@H]1CN(c2ccc(-c3ccnc4[nH]ccc34)c(F)c2)C(=O)O1 [Example 31, (5S)-5-(aminomethyl)-3-[3-fluoro-4-(1H-pyrrolo[2,3-b]pyridin-4-yl)phenyl]-1,3-oxazolidin-2-one]	0.78 (≈ 0.255 µg/mL)	0.39 (≈ 0.127 µg/mL)	200 (≈ 65.3 µg/mL)	> 20	
Cn1cc(-c2ccc(N3C[C@H](CN)OC3=O)cc2F)cn1 [Example 37, (5S)-5-(aminomethyl)-3-[3-fluoro-4-(1-methyl-1H-pyrazol-4-yl)phenyl]-1,3-oxazolidin-2-one]	0.39 (≈ 0.113 µg/mL)	0.29 (≈ 0.0842 µg/mL)	200 (≈ 58.1 µg/mL)	> 20	
C[S+]([O-])c1ccc(-c2ccc(N3C[C@H](CN)OC3=O)cc2F)cc1 (stereo partly drawn) [Example 7, (5S)-5-(aminomethyl)-3-[2-fluoro-4′-(methylsulfinyl)biphenyl-4-yl]-1,3-oxazolidin-2-one]	0.09 (≈ 0.0314 µg/mL)	0.04 (≈ 0.0139 µg/mL)	200 (≈ 69.7 µg/mL)	> 20	
NC[C@H]1CN(c2ccc(-c3ccc(C(N)=O)cc3)c(F)c2)C(=O)O1 [Example 2, 4′-[(5S)-5-(aminomethyl)-2-oxo-1,3-oxazolidin-3-yl]-2′-fluorobiphenyl-4-carboxamide]	0.03 (≈ 0.00988 µg/mL)	0.02 (≈ 0.00659 µg/mL)	200 (≈ 65.9 µg/mL)	> 25	
NC[C@H]1CN(c2ccc(-c3ccn4ncnc4c3)c(F)c2)C(=O)O1 [Example 8, (5S)-5-(aminomethyl)-3-(3-fluoro-4-[1,2,4]triazolo[1,5-a]pyridin-7-ylphenyl)-1,3-oxazolidin-2-one]	0.04 (≈ 0.0131 µg/mL)	0.04 (≈ 0.0131 µg/mL)	200 (≈ 65.5 µg/mL)	> 20	
NC[C@H]1CN(c2ccc(-c3ccc(Cl)nc3)c(F)c2)C(=O)O1 [Example 22, (5S)-5-(aminomethyl)-3-[4-(6-chloropyridin-3-yl)-3-fluorophenyl]-1,3-oxazolidin-2-one]	0.19 (≈ 0.0611 µg/mL)	0.04 (≈ 0.0129 µg/mL)	100 (≈ 32.2 µg/mL)	> 20	
NC[C@H]1CN(c2ccc(-c3cnc(N4CCCOCC4)nc3)c(F)c2)C(=O)O1 [Example 29, (5S)-5-(aminomethyl)-3-{3-fluoro-4-[2-(1,4-oxazepan-4-yl)pyrimidin-5-yl]phenyl}-1,3-oxazolidin-2-one]	1.5 (≈ 0.581 µg/mL)	0.39 (≈ 0.151 µg/mL)	200 (≈ 77.5 µg/mL)	> 25	

Source: patent US10947205B2, “Oxazolidinone compounds and methods of use thereof as antibacterial agents” (priority 2015, dated 2021)
